No end group written: not given here.
Experiments:
[1] = tested on: INS-1E cells; assay: Glucose-stimulated insulin secretion assay; format: cell-based, rat; details: 2 h preincubation with RG54 at 3.3 mmol/l glucose, then 1 h at 20 mmol/l glucose without peptide; ELISA; three independent experiments
Protocol: INS-1E cells were preincubated for 2 h with HEPES KRB supplemented with 3.3 mmol/l glucose and RG54, then stimulated for 1 h with HEPES KRB supplemented with either 3.3 or 20 mmol/l glucose but no RG54 peptide, and insulin secretion was analysed using ELISA (Mercodia, Uppsala, Sweden). See ESM Methods for more details.
Fig. 3 RG54 induces skeletal muscle glucose uptake and primes INS-1E cells to increase GSIS. (a) C2C12 skeletal muscle myotubes were incubated in the absence or presence of different concentrations of RG54 or with insulin, followed by glucose uptake measurements. Values are means ± SEM from three independent experiments. *p≤0.05, **p≤0.01, ***p≤0.001 vs control. […] Insulin secretion was measured after 1 h glucose challenge. […]
Peptide concentration was determined at 205 nm using a NanoDrop 2000c spectrophotometer (Thermo Scientific) and integrity was analysed by Tris-Tricine SDS-PAGE followed by coomassie staining or by circular dichroism spectroscopy (CD). […]
The primary goal of this study was to investigate the anti -diabetic and anti-atherosclerotic efficacy of a novel ApoA -I derived peptide. Using a range of in vitro models, we assessed the effects of the peptide on HDL formation, cholesterol efflux, insulin secretion, and non -insulin dependent glucose uptake. […] Peptide effects were measured relative to full length ApoA -I and vehicle controls. […]

[2] = Peptide homogeneity (particle size) by dynamic light scattering; format: physicochemical
Protocol: Peptide (lyophilised powder) produced by Red Glead (Lund, Sweden) was reconstituted in Milli-Q water and then either used directly or mixed in a 1:1 ratio with 6 mol/l guanidine HCl in 2× PBS to give a monodisperse solution, followed by desalting using a column equilibrated with PBS, pH 7.4, using ÄKTAxpress fast protein LC (GE Healthcare, Uppsala, Sweden). Peptide integrity was analysed using circular dichroism spectroscopy. Peptide solubility was assayed at Red Glead using HPLC. Peptide stability in physiologic buffer or blood plasma (human or mouse) over 2 h was assayed at the Science for Life Laboratory (Uppsala, Sweden). For detailed methods, please refer to the electronic supplementary material (ESM) Methods.
The peptide RG54 was synthesised with natural amino acids and then modified with an acetylation cap on the N-terminus in order to reduce the susceptibility for proteolytic degradation by […] (ESM Fig. 3a). […] Peptide integrity following the denaturation/refolding procedure was confirmed using gel electrophoresis and circular dichroism spectroscopy analyses (ESM Fig. 3d,e) and by peptide stability assays (buffer or plasma) (ESM Fig. 3f).
ESM Figure 3. Peptide characterization for native or refolded RG54.
(a) Full peptide sequence. Particle size distribution of RG54 was analysed by DLS and frequency curves generated for Native (b) or Refolded (c) peptide. […]

## Ac-AEYHAKATEHLSTLSEKAKPALEDLRQGLLPVLESFKVSFLSALEEYTKKLNTQ [RG54]
[1]
  GSIS compared with control cells: up to a twofold increase
[2]; 6 mol/l guanidine HCl in 2x PBS 1:1, desalted into PBS pH 7.4
  homogeneity (DLS) after chemical denaturation and refolding: monodisperse preparations
[2]; native peptide reconstituted in Milli-Q water, five individual experiments
  homogeneity, dynamic size range (DLS): significant inter- and intra-sample heterogeneity

— publication PMC6560211, “ApoAI-derived peptide increases glucose tolerance and prevents formation of atherosclerosis in mice” (Diabetologia, 2019)
